Assay results published in patent US7718768B2, “Biologically active peptide [sequence]” (CMS Peptides Patent Holding Company Limited, priority 2001, dated 2010).
Marks after values point to notes of the source that are not given here. No end group written: not given here.

How the values were obtained:
[1] = test system: T lymphocyte; test: T lymphocyte IL-2 secretion test (HT-2 cell bioassay of ConA supernatant); format: in vivo, BALB/c mice; conditions: IFN-γ and IL-2 groups 3×10^5 IU/kg/day, X ± SD
Experimental: The above substances were all dissolved in 0.5 ml saline and injected intraperitoneal (i.p.) for 15 continuous days, once per day.
Spleen cells of density 1×10^6/ml were placed onto a 96 wells cell culture plate, 100 μl/well, three parallel wells each of the assay sample and control sample per mouse. To the assay wells, 100 μl/well ConA of 100 μg/ml in RPMI-1640 was added, and 100 μl/well plain RPMI-1640 was used for the controls. The cells were incubated for 66 hrs at 37° C., 5% CO2. The cells were then pelleted by centrifugation at 150 g for 10 minutes.
HT-2 cells at log phase were collected by centrifugation at 150 g for 10 minutes, and washed three times with cold Hank's solution by re-suspension and centrifugation. The collected HT-2 cells were re-suspended in RPMI-1640 and incubated at 37° C., 5% CO2 for 30 minutes. The cells were further washed twice with RPMI-1640 by re-suspension and centrifugation, and re-suspended to final concentration of 2×10^5/ml with RPMI-1640.
rIL-2 was diluted to the following concentration with RPMI-1640: 500 IU/ml, 250 IU/ml, 125 IU/ml, 62.5 IU/ml, 31.25 IU/ml, and […].
A 96 well cell culture plate was set up with three parallel wells per combination:
Negative control: 100 μl RPMI-1640+100 μl HT-2 cell suspension
rIL-2 standard: 100 μl rIL-2 solution+100 μl HT-2 cell suspension
Assay well: 100 μl diluted supernatant+100 μl HT-2 cell suspension
The plate was incubated at 37° C., 5% CO2 for 68 hours, then centrifuged at 150 g for 15 minutes and the supernatant removed. 100 μl 0.5 mg/ml MTT in RPMI-1640 without phenolsulfonphthalein was added into each well. After shaking for 3-4 minutes to re-suspend the cells, continue to incubate for another 4 hours. Samples were then centrifuged at 150 g for 15 minutes and the supernatant was removed. To each well, 120 μl 40 mM HCl-2-propanol was added, mixed for 3-4 minutes and OD analyzed at 570 nm, referenced at 630 nm with an ELISA plate reader.
The average OD of the three parallel wells of each dilution was taken and plotted against concentration on a semi-log paper, concentration on the X-axis. The concentration at 50% OD saturation was obtained for both the testing supernatant and rIL-2.

[2] = test system: anti-SRBC antibody; test: humoral immunity (SRBC hemolysis index) of mice bearing transplanted B16 melanoma; format: in vivo, C57BL/6 mice; set-up: key: index = (OD540 of test sample ÷ reference OD540) × 500
Experimental: Intraperitoneal injection, once per day. […] Treatment of all groups with testing substance lasted for 30 days or until the animal died unless otherwise specified.
Stock B16 mouse melanoma cells were incubated in DMEM/F12 medium supplemented with 10% fetal bovine serum, 37° C./5% CO2 for 72 hrs, then washed 3-4 times with Hank's solution. The cell concentration was adjusted to 1×10^5 per ml with Hank's solution and 0.1 ml of the cell suspension was injected via the tail vein into the testing mice to generate the B16 melanoma bearing animal model. Treatment with test substance started as described in section Method 1.
Sheep red blood cells (SRBC) were prepared by collecting blood from the cervical vein and put into a sterile flask with glass beads. The flask was shaken for 3 minutes and the blood then mixed with Alsever solution (glucose 2.05 g, NaCl 0.4 g, […] 0.8 g, adjust to 100 ml with distilled water) and stored at 4° C. Immediately before use, samples were centrifuged at 130 g, 5 minutes to collect the SRBC. The cells were washed two times by re-suspension and centrifugation in normal saline. Then the cell pellet was collected by centrifugation at 180 g for 10 minutes and re-suspended in saline to make the final working SRBC suspension, 2% (v/v).
Complement was prepared by adding 10 volumes of fresh Cavy serum into one volume centrifuge packed SRBC, and then gently shaken for 30 minutes at 4° C. The SRBC was removed by centrifugation at 200 g for 10 minutes. 10 volumes of normal saline were added to obtain the working complement solution.
On the testing animals, on the 27th date of test substance treatment, 0.2 ml of the working SRBC cell suspension was injected into each animal to raise antibody. On the day after the last test substance administration, blood was collected from the eye canthus and left at room temperature for one hour for serum exudation. After centrifugation at 200 g for 10 minutes, the collected serum was diluted by 500 times with normal saline.
To 1 ml diluted mouse serum of each mouse, 0.5 ml SRBC suspension was added. Ice cold. Then 1 ml working complement solution was added and incubated at 37° C. water bath for 10 minutes. Reactions were terminated by ice cold. Samples were then centrifuged at 200 g for 10 minutes to obtain the supernatant.
To 1 ml of this supernatant, 3 ml Drabkin solution was added and left at room temperature for 10 minutes. OD540nm was obtained.
Reference OD540nm was obtained by mixing 0.25 ml SRBC suspension with Drabkin solution to 4 ml and placed at room temperature for 10 minutes before OD540nm was taken. Hemolysis index=(OD540nm of test sample÷reference OD540 nm)×500 6.2 After the Humoral Immunity Study, the Mice were Killed by Cervical Vertebra Dislocation. Postmortum Examination of the Animals was Performed. The Pathological Changes were Recorded, and the Numbers of Melanoma Lung Metastasis Foci were Counted. Results 1. The Effect of Peptide on the Cellular Phagocytosis in BALB/c Mice with Transplanted S180 Sarcoma (Method 2.1)

[3] = peptide 50 μg/kg/day i.p. 15 days
[4] = peptide 500 μg/kg/day i.p. 15 days
[5] = peptide 0.5 μg/kg/day i.p. 15 days

Molecule | activity of T lymphocyte in secreting IL-2 [1, 3] | Hemolysis index ([2]; 0.5 μg/kg i.p. once per day) | Hemolysis index ([2]; 5 μg/kg i.p. once per day) | Hemolysis index ([2]; 50 μg/kg i.p. once per day) | Hemolysis index ([2]; 500 μg/kg i.p. once per day) | activity of T lymphocyte in secreting IL-2 [1, 4] | activity of T lymphocyte in secreting IL-2 [1, 5] | activity of T lymphocyte in secreting IL-2 ([1]; peptide 5 μg/kg/day i.p. 15 days) [IU] | Hemolysis index ([2]; 3 × 10^5 IU/kg i.p. once per day)
FNFVPP [CMS003] | 86 ± 9*^ IU | 61.6 ± 26.9*^$ | 37.2 ± 15.9*^$ | 38.7 ± 13.5*^$ | 35.9 ± 13.0*^$ |  |  |  | 
IGMESAGIHETTY [CMS016] |  |  |  |  | 43.3 ± 29.9 |  |  |  | 
KAVGHLDDLPGAL [CMS008] |  | 42.7 ± 18.4*^$ | 38.9 ± 12.0*^$ | 37.1 ± 16.7*^$ | 50.1 ± 17.8*^$ |  |  |  | 
LRVAPEEHPTL [CMS009] |  |  |  |  |  | 114 ± 13*^@^ IU |  |  | 
PSIVGRPRHQGVM [CMS015] |  |  |  |  |  | 85 ± 17*^ IU |  |  | 
PTTKTYFPHF [CMS001] | 60 ± 10 IU | 51.0 ± 16.2*^$ | 41.3 ± 17.7*^$ | 45.0 ± 31.9*^$ | 36.0 ± 10.2*^$ |  |  |  | 
Phe Val Asn Asp (FVND; listed as Sus scrofa) [CMS035] |  |  | 38.9 ± 21.2*^$ | 44.7 ± 22.7*^$ | 40.5 ± 25.8 |  |  |  | 
Pro Glu Asn Phe (PENF; listed as Sus scrofa) [CMS034] |  | 50.8 ± 18.4*^$ | 43.0 ± 11.7*^$ | 30.2 ± 10.9 |  |  | 85 ± 10*^ IU |  | 
RVAPEEHPTL [CMS011] |  | 32.0 ± 14.7 |  |  | 34.4 ± 19.4 |  | 101 ± 19*^@^ IU |  | 
Tyr Ser Leu (YSL; listed as Sus scrofa) [CMS024] |  | 43.0 ± 10.7*^$ | 42.2 ± 11.8*^$ | 27.8 ± 9.1 | 30.1 ± 10.0 |  |  |  | 
VAPEEHPTLLTEAPLNPK [CMS010] |  | 34.9 ± 10.5*^$ | 51.0 ± 14.6*^$ | 39.6 ± 7.7*^$ | 50.1 ± 16.7*^$ | 125 ± 17*^@^ IU | 66 ± 11 IU |  | 
VGMGQKDSY [CMS019] |  | 42.0 ± 12.0*^$ | 35.4 ± 15.1*^$ | 28.3 ± 7.6 |  |  |  |  | 
IFN-γ: recombinant mouse interferon-γ, Beijing Biotech Inc.; positive control immunostimulant (protein, UniProt P01580 23-155, looked up) Interferon gamma: HGTVIESLESLNNYFNSSGIDVEEKSLFLDIWRNWQKDGDMKILQSQIISFYLRLFEVLKDNQAISNNISVIESHLITTFFSNSKAKKDAFMSIAKFEVNNPQVQRQAFNELIRVVHQLLPESSLRKRKRSRC | 99 ± 16 IU |  |  |  |  | 100 ± 18 IU | 87 ± 15 IU | 96 ± 14 | 60.5 ± 17.4
